From US12325701B2, “YKL-40 inhibitors and their therapeutic” (Molecure S.A., priority 2022, dated 2025)

Key:
[1] = target: YKL-40 (YKL-40: heparan sulfate interaction) (Homo sapiens (Human), UniProt P36222); assay: YKL-40:HS assay, heparan sulfate interference AlphaScreen; conditions: read-out: YKL-40:HS, IC50/max % inh (max % inh)
human YKL-40 = human YKL-40 (Homo sapiens (Human), UniProt P36222); assay: Human YKL-40 direct binding assay based on MicroScale Thermophoresis (MST); conditions: by MST and competitive AlphaScreen for chitin binding site; depends on ligand length, sulphation, Mg2+
Chain of human YKL-40 (P36222 22-383): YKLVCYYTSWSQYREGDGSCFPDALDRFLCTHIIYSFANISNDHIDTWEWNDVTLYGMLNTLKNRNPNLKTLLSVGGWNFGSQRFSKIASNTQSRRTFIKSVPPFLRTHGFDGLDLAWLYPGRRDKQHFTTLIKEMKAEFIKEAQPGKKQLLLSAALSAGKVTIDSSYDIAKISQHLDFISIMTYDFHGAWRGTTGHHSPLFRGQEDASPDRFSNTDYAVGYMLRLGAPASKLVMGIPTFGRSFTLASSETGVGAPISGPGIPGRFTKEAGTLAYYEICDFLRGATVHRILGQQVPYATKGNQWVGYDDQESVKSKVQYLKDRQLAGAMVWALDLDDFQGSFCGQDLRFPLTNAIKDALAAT

Chain of YKL-40 (YKL-40: heparan sulfate interaction) (P36222 22-383): as above

Molecule	inhibition [1]	binding affinity to YKL-40 (in words) (human YKL-40)
CNC(=O)CN1C[C@H](Cc2ccc(Cl)cc2)N(C2CCN(c3ccccn3)CC2)C[C@@H]1C(C)C [Compound 106, 2-((2S,5S)-5-(4-chlorobenzyl)-2-isopropyl-4-(1-(pyridin-2-yl)piperidin-4-yl)piperazin-1-yl)-N-methylacetamide 2,2,2-trifluoroacetate]	27%	–
Cc1ccnc(N2CCC(N3C[C@H](C)OC[C@@H]3Cc3ccc(Cl)cc3)CC2)c1F [Compound 112, (2S,5S)-5-(4-chlorobenzyl)-4-(1-(3-fluoro-4-methylpyridin-2-yl)piperidin-4-yl)-2-methylmorpholine 2,2,2-trifluoroacetate]	30%	–
Cc1nc(N2CCC(N3C[C@H](C)OC[C@@H]3Cc3ccc(Cl)cc3)CC2)sc1C [Compound 183, (2S,5S)-5-(4-chlorobenzyl)-4-(1-(4,5-dimethylthiazol-2-yl)piperidin-4-yl)-2-methylmorpholine 2,2,2-trifluoroacetate]	53%	–

Continued, values first:

inhibition [1]	binding affinity to YKL-40 (in words) (human YKL-40)	Molecule
36%	–	Cc1cnc(N2CCC(N3C[C@H](C)OC[C@@H]3Cc3ccc(Cl)cc3)CC2)s1 [Compound 185, (2S,5S)-5-(4-chlorobenzyl)-2-methyl-4-(1-(5-methylthiazol-2-yl)piperidin-4-yl)morpholine 2,2,2-trifluoroacetate]
–	high nM affinity	heparin sodium salt
